{"source": "patent US20230392126A1", "about": "“TISSUE ORGANOIDS” (priority 2016, published 2023)", "key": {"[1]": {"test": "Stability and tolerance of transplanted skin organoids in immunocompetent hosts", "assay_type": "in vivo, mouse", "conditions": "CD1 hosts", "text": "For grafting with skin organoids, CD1 (isogenic mouse keratinocyte transplantation) males or Nude (human keratinocyte transplantation) females with the ages of 6-8 weeks were anesthetized. A silicone chamber bottom with the interior diameter of 0.8 cm and the exterior diameter of 1.5 cm was implanted on its shaved dorsal mid-line skin, which was used to hold the skin graft. A chamber cap was installed to seal the chamber right after a piece of graft was implanted. About one week later, the chamber cap was removed to expose the graft to air. A single dose of 0.2 mg α-CD4 (GK1.5) and 0.2 mg α-CD8 (2.43.1) antibodies was administered intraperitoneally for skin grafting.\nOptical imaging was performed in the integrated small animal imaging research resource (iSAIRR) at the University of Chicago. Bioluminescence images were acquired on an IVIS Spectrum (Caliper Life Sciences®, Alameda, CA) after animal was injected with luciferin (100 mg/kg). […]\nGrafted cells in immunocompetent hosts readily expressed exogenous genes, such as Luciferase and Histone H2B-RFP (FIG. 1B-D), which were transduced to the cells with lentivirus. […] Importantly, the tissue organoid with expression of exogenous gene, such as Luciferase and H2B-RFP, was stable in vivo for more than 5 months in immunocompetent hosts, as determined by intravital bioluminescence imaging and tissue histology. […]"}, "[2]": {"test": "Obesity induced by high fat diet in grafted mice", "assay_type": "in vivo, mouse", "text": "(§1) Male CD-1 mice with skin transplants were housed (5 per cage, ˜8 weeks old) in a central-controlled animal facility for air, humidity and temperature. These mice were fed either a regular chow or an HFD (60% kcal from fats, 20% from carbohydrates, and 20% from proteins) purchased from Bio-Serv (Frenchtown, NJ). Body weight and food intake were measure biweekly.\nTo examine the potential applicability in diet-induced obesity and diabetes, GLP1/GGBP-expressing cells and control cells (GGBP alone) were transplanted into two cohorts of CD1 adult male mice. The mice were fed a high fat diet (HFD) to induce obesity in grafted animals. Compared with animals on a regular chow diet, the HFD greatly accelerated body weight gain in mice grafted with control cells.\nas §1, with “mice” for “mice with skin transplants”, “humidity,” for “humidity”\nTo examine the potential effect in diet-induced obesity and diabetes, GLP1-expressing cells and control cells were grafted onto two cohorts of CD1 adult mice, and a high fat diet (HFD) was used to induce obesity in the grafted animals. Doxycycline was applied to half of the animals to induce expression of GLP1. To minimize gender difference, only male animals were used. Compared with animals on regular chow diet, HFD greatly accelerated body weight gain in mice grafted with control cells or GLP1 cells without doxycycline treatment."}}, "data": [{"substance": "GLP1", "values": [{"measurement": "rejection of skin grafts after transplantation", "setting": "[1]", "result": "No significant rejection of the skin grafts has been observed"}, {"measurement": "body weight increase", "setting": "[2]; HFD, GLP1/GGBP-expressing grafts vs GGBP alone, CD1 male mice", "result": "significant inhibition in body weight increase"}, {"measurement": "body weight", "setting": "[2]; HFD, doxycycline-induced GLP1 expression, CD1 male mice", "result": "significant decrease in body weight"}, {"measurement": "HFD-induced adipocyte hypertrophy in white fat tissue", "setting": "[2]; doxycycline-induced GLP1 expression", "result": "dramatically suppressed this effect"}]}]}
